Assay results published in US9880171B2, “iASPP phosphorylation and metastatic potential” (LUDWIG INSTITUTE FOR CANCER RESEARCH LTD., priority 2012, dated 2018).

Experiments:
[1] = tested on: iASPP phosphorylated at ser 113; assay: phospho-ser113 iASPP western blot in nocodazole-treated U2OS cells; type: cell-based, human; details: nocodazole 1 μM 16 hours, 0.5 μM JNJ-7706621
Protocol: For the floating and adherent cells, the rounded (mitotic rich) cells were separated from the adherent cells after 24 hours treatment with nocodazole. Lysates were separated on a 6% SDS PAGE gel and proteins analysed by conventional western blotting. iASPP phosphor-[…] was detected using the antibody from rabbit 42310 as described in FIG. 23A, and total iASPP was detected by re-probing the blot with antibody LX049.3. Nucleolin was used as a loading control. […] Consistent with enhanced iASPP phosphorylation in nocodazole arrested mitotic cells, enhanced iASPP phosphorylation on ser 113 was also observed in the floating cells, which are mostly mitotic cells, and not in adherent cells (FIG. 23B). Total iASPP was detected by re-probing the blot with antibody LX049.3. Additionally, the specific binding of iASPP antibody (42310) to phosphorylated ser 113 were evaluated by determining the failure of iASPP antibody (42310) to bind when the protein is not phosphorylated at ser 113. Since CDK kinase phosphorylates iASPP at ser 113, CDK inhibitor JNJ-7706621 was used to treat human U2OS cells. […] Western blotting was carried out as described in FIG. 23B using an 8% SDS PAGE gel. When compared to untreated cells, binding of phosphor-ser 113 specific […] antibody was not observed in the presence 0.5 μM JNJ-7706621 (FIG. 23C). Total iASPP was detected by re-probing the blot with antibody LX049.3.

[2] = tested on: iASPP modification in H1299 cells; assay: nocodazole-induced iASPP modification in H1299 cells, G2/M kinase inhibitor panel (immunoblotting); type: cell-based, human; details: panel of 15 G2/M kinase inhibitors, 2-10 μM, 10 μM nocodazole overnight
Protocol: FIG. 12. […] FIG. 12A. […] FIG. 12B. […] FIG. 12C.
FIG. 13. FIG. 13A. […] FIG. 13B.
FIG. 20. […] FIG. 20A. […] Bar=20 μm.
For WB, cells were lysed in buffer containing 8 M urea, 1 M thiourea, 0.5% CHAPS, 50 mM DTT, and 24 mM spermine. A total of 40 μg of protein extract was loaded per lane into SDS-polyacrylamide gels. Gels were transferred onto nitrocellulose membrane (Protran) and the resulting blots incubated first with primary antibody overnight at 4° C. and then with the appropriate secondary horseradish peroxidize-conjugated antibody (Dako). The results were visualized by enhanced chemiluminescent detection (Amersham Biosciences) using X-ray film (Fujifilm).

[3] = tested on: p53 expression in B16 cells; assay: p53 level after Nutlin3 treatment, B16 cells; type: cell-based, mouse
Protocol: (§1) FIG. 20. Restoring p53 by inhibiting mdm2 and iASPP suppresses melanoma growth in vitro and in vivo. FIG. 20A. H1299 cells were treated with DMSO or 10 μM nocodazole in the presence or absence of 2 or 10 μM of mitosis-related kinase inhibitors as indicated. […] FIG. 20B. Left panel: representative p53 level after Nutlin3 treatment for 24 hours in a variety of cells. Right bar graphs show the sub-G1 proportion of WM278 after treatment as that described in FIG. 19B (in upper panel, 10 μM and 20 μM Nutlin3 were used in parallel for comparison). From left to right of the upper right bar graph of FIG. 20B, the bars correspond to DMSO, Nut and JNJ+Nut, respectively. From left to right of the bottom bar graph of FIG. 20B, the bars correspond to DMSO, JNJ, Nut and JNJ+Nut, respectively. FIG. 20C. Me300, SK-MEL37, and B16 cells were treated as above (For B16 panel, 10 μM Nutlin3 was used) and sub-G1 proportion was analyzed. In (B) and (C), the bar graphs (mean±SD) were derived from three independent experiments. *p<0.05. FIG. 20D. Left panel: untreated B16 cells were subcutaneously injected into mice at day 1. […] Compound administration and tumor size measurement were repeated every two days from day 7 onwards. Bar graphs are shown as mean±SD (*p<0.05, n=6). FIG. 20E. Lower panels show representative images of isolated tumors. Right panel: representative H & E staining in B16 tumor section. Bar=20 μm. […]

[4] = tested on: p53 expression in SK-MEL37, WM278 and Me300 cells; assay: p53 level after Nutlin3 treatment, human melanoma cells; type: cell-based
Protocol: as §1

[5] = tested on: WM278, Me300 and SK-MEL37 melanoma cell lines; assay: p53-dependent apoptosis assay (subG1 DNA content, PI/FACS), Example 8; type: cell-based, human; details: 0.3 μM K00616a, 20 μM nutlin3, 1 μM PLX4032, agent alone, 72 hours
Protocol: Cells were transfected with siRNA as shown and pre-seeded on 6 well plates ON, 0.3 μM cyclin B1/cdk1 inhibitors K00616a were then added for 48 hours to block iASPP modification. Cells were then treated with 0.3 μM K00616a, 20 μM nutlin3, or combinations of these drugs for another 72 hours. Cells were collected and cell cycle status, growth potential, and protein expression pattern were then determined by PI staining/FACS analysis, colony formation assay, and WB, respectively. […] Cells were pre-seeded on 6 well plates for overnight, 0.3 μM cyclin B1/cdk1 inhibitors K00616a were then added for 48 hours to block iASPP modification. Cells were then treated with 0.3 μM K00616a, 20 μM nutlin3, 1 μM PLX4032, or combinations of these drug for another 72 hours. Cells were collected and cell cycle status, growth potential, and protein expression pattern were then determined by PI staining/FACS analysis, colony formation assay, and WB, respectively.
Cells were harvested, washed and fixed in ice-cold 70% EtOH. […] After 30 min RT incubation cells were analyzed by flow cytometry.
WM278 and Me300 also express wild type p53, whereas SK-MEL37 expresses mutant p53. […] Wild type p53 function was measured by a p53-dependent apoptosis assay, detecting the percentage of cells containing subG1 DNA content and growth suppression in a clonogenic survival assay.

| Structure (SMILES) | binding of phosphor-ser 113 specific anti-iASPP antibody (iASPP ser 113 phosphorylation) [1] | prevention of nocodazole-induced iASPP modification [2] | optimal concentration of Nutlin3 to induce maximal p53 expression [3] | optimal concentration of Nutlin3 to induce maximal p53 expression ([4]; SK-MEL37) | optimal concentration of Nutlin3 to induce maximal p53 expression ([4]; WM278 and Me300 cells) | apoptotic cell death (subG1) [5] |
| --- | --- | --- | --- | --- | --- | --- |
| Nc1nc(Nc2ccc(S(N)(=O)=O)cc2)nn1C(=O)c1c(F)cccc1F [JNJ-7706621] | not observed | most potent inhibitor of iASPP modification | – | – | – | – |
| COc1ccc(C2=N[C@@H](c3ccc(Cl)cc3)[C@@H](c3ccc(Cl)cc3)N2C(=O)N2CCNC(=O)C2)c(OC(C)C)c1 [Nutlin3] | – | – | 10 µM | 2 µM | 20 µM | very low rates of apoptotic cell death |
